Assay results: US4141972A, “Purine nucleoside 5'-phosphate (mono, di or tri) 3'(2')-diphosphates and processes for their preparation” (priority 1974, dated 1979)
Blank lines part the entries; values can stand above or below the compound they belong to.

Columns and labels:
[1] = system: nucleotide pyrophosphotransferase, enzymes obtained from the six actinomycetes (Streptomyces adephospholyticus A4668 ATCC 31122, St. aspergilloides ATCC 14808 …); assay: Inhibitory action of nucleosides, nucleotides, bases and general enzyme inhibitors on nucleotide pyrophosphotransferase; assay type: biochemical
Protocol: (1) Inorganic phosphate determination by a modification of Nakamura's method: The standard reaction mixture contained 0.25 M glycine-NaOH buffer (pH 10.0), 0.2 ml.; 0.05 M MgCl2, 0.05 ml.; 0.05 M ATP, 0.05 ml.; the enzyme solution (to be diluted by buffer if necessary), 0.1 ml.; and distilled water, 0.1 ml. in a final volume of 0.5 ml. After incubation at 37° C. for 10 minutes, the reaction was terminated by adding 0.5 ml. of 0.2 N acetic acid, and chilling on ice. Immediately, 3 ml. of developing reagent (amidol-molybdate) was added and the mixture was allowed to stand for 10 minutes at 37° C. The optical density was measured at 750 nm and the moles of Pi released were calculated using the standard curve for Pi.
The reaction mixture contained 20 mM adenosine-8-3H-triphosphate (2 mCi/m mole), 5 mM MgCl2, 62.5 mM glycine-NaOH buffer (pH 10.0) and 0.1 ml. of enzyme solution to give a total volume of 0.2 ml. The mixture was incubated at 37° C. for 10 minutes and the incubation was terminated by addition of 0.01 ml. of 1 N acetic acid. Twenty microliters of the reaction mixture were spotted on a polyethyleneimine (PEI) cellulose F thin layer sheet (E. Merck AG), dried and developed in 0.75 M KH2 PO4, pH 3.4, for two hours at room temperature. After chromatography the sheets were dried and exposed to ultraviolet light provided by a Manasul UV lamp to localize the pppApp and AMP formed. The spots on the chromatograms corresponding to pppApp and AMP were cut out and placed in a scintillation vial containing 0.5 ml. of 0.1 N HCl. Vials were boiled for 15 minutes to elute nucleotides adsorbed on the PEI-cellulose and radioactivity was measured by 10 ml. of BRAY Solution in a liquid scintillation counter. A unit of enzyme activity is defined as the amount of enzyme forming 1μ mole of pppApp or AMP per minute under the above condition.
Inhibitory actions of 40 substances which are general enzyme inhibitors such as nucleosides, nucleotides and their bases were examined for their effect on the enzymes obtained from the six actinomycetes.

L1210 cells = assay: Effect of nucleotides on the life span of mice inoculated with L1210 cells; assay type: in vivo; conditions: for 30 days survivors / MST (mean survival time) / T/C: L1210, mice
Excerpt: The characteristic of the said nucleotide pyrophosphotransferase is that it inhibits the growth of Hela S3, L1210 and L5178Y cells in culture at a relatively low concentration, 5 to 10 units/ml. […] The nucleotide or enzyme is combined with a conventional pharmaceutically acceptable nontoxic carrier for intraperitoneal administration.
Tumor: L1210, Sloan-Kettering line, 10^5 cells/head, i.p.
MST: Mean survival time

[2] = other nucleic acids, concentration not given
[3] = 10 mM each, non-substrate nucleic acids
[4] = 5 mg/kg.day i.p. once daily for 10 days
[5] = 10 mg/kg.day i.p. once daily for 10 days
[6] = 20 mg/kg.day i.p. once daily for 10 days
[7] = BDF1 mice, L1210 i.p., i.p. once daily for 10 days

SMILES: Nc1ncnc2c1ncn2[C@@H]1O[C@H](CO)[C@@H](O)[C@H]1O [adenosine]
Inhibition of enzyme activity [1, 2]: not inhibitory

Inhibition of enzyme activity [1, 3]: marked inhibition
SMILES: Nc1nc2c(ncn2[C@H]2C[C@H](O)[C@@H](COP(=O)(O)OP(=O)(O)O)O2)c(=O)[nH]1 [d-GDP]

Inhibition of enzyme activity [1, 2]: not inhibitory
SMILES: O=c1[nH]cnc2nc[nH]c12 [hypoxanthine]

SMILES: O=c1[nH]c(=O)c2[nH]cnc2[nH]1 [xanthine]
Inhibition of enzyme activity [1, 2]: not inhibitory

Inhibition of enzyme activity [1, 2]: not inhibitory
SMILES: Nc1cc[nH]c(=O)n1 [cytosine]

SMILES: Nc1nc2nc[nH]c2c(=O)[nH]1 [guanine]
Inhibition of enzyme activity [1, 3]: marked inhibition

Inhibition of enzyme activity [1, 2]: not inhibitory
SMILES: NC(=O)c1ccc[n+]([C@@H]2O[C@H](COP(=O)([O-])OP(=O)(O)OC[C@H]3O[C@@H](n4cnc5c(N)ncnc54)[C@H](O)[C@@H]3O)[C@@H](O)[C@H]2O)c1 [NAD]

Inhibition of enzyme activity [1, 3]: marked inhibition
SMILES: Nc1nc2c(ncn2[C@@H]2O[C@H](CO)[C@@H](O)[C@H]2O)c(=O)[nH]1 [guanosine]

SMILES: Nc1ncnc2c1ncn2[C@@H]1O[C@H](COP(=O)(O)OP(=O)(O)OP(=O)(O)O)[C@@H](OP(=O)(O)OP(=O)(O)O)[C@H]1O [pppApp 7Li, adenosine 5'-triphosphate 3' (2')-diphosphate]
30 days survivors (L1210 cells; [4]): 1/5
MST (mean survival time) (L1210 cells; [4]): 14.0 days
T/C (L1210 cells; [4]): 157%
30 days survivors (L1210 cells; [5]): 1/5
MST (mean survival time) (L1210 cells; [5]): 12.5 days
T/C (L1210 cells; [5]): 140%
30 days survivors (L1210 cells; [6]): 2/5
MST (mean survival time) (L1210 cells; [6]): 16.8 days
T/C (L1210 cells; [6]): 189%
Accumulation of abdominal dropsy (L1210 cells; [7]): distinctly suppressed
Effect on lifespan of tumor-bearing mice (L1210 cells; [7]): prolonged the lifespan
Toxicity to the mice (L1210 cells; [7]): without causing toxicity

Inhibition of enzyme activity [1, 3]: marked inhibition
SMILES: Nc1nc2c(ncn2[C@H]2C[C@H](O)[C@@H](COP(=O)(O)OP(=O)(O)OP(=O)(O)O)O2)c(=O)[nH]1 [d-GTP]

SMILES: Nc1ncnc2c1ncn2[C@@H]1O[C@H](COP(=O)(O)OP(=O)(O)OP(=O)(O)O)[C@@H](O)[C@H]1O [ATP 2Na]
30 days survivors (L1210 cells; [4]): 0/5
MST (mean survival time) (L1210 cells; [4]): 8.7 days
T/C (L1210 cells; [4]): 98%
30 days survivors (L1210 cells; [5]): 0/5
MST (mean survival time) (L1210 cells; [5]): 9.2 days
T/C (L1210 cells; [5]): 103%
30 days survivors (L1210 cells; [6]): 0/5
MST (mean survival time) (L1210 cells; [6]): 8.6 days
T/C (L1210 cells; [6]): 97%
Effect on lifespan of tumor-bearing mice (L1210 cells; [7]): not effective

SMILES: O=c1ccn([C@@H]2O[C@H](CO)[C@@H](O)[C@H]2O)c(=O)[nH]1 [uridine]
Inhibition of enzyme activity [1, 2]: not inhibitory

Inhibition of enzyme activity [1, 2]: not inhibitory
SMILES: Nc1ccn([C@@H]2O[C@H](COP(=O)(O)O)[C@@H](O)[C@H]2O)c(=O)n1 [CMP]

Inhibition of enzyme activity [1, 2]: not inhibitory
SMILES: O=c1cc[nH]c(=O)[nH]1 [uracil]

SMILES: Nc1ccn([C@@H]2O[C@H](CO)[C@@H](O)[C@H]2O)c(=O)n1 [cytidine]
Inhibition of enzyme activity [1, 2]: not inhibitory

Inhibition of enzyme activity [1, 2]: not inhibitory
SMILES: OC[C@H]1O[C@@H](n2cnc3c(O)ncnc32)[C@H](O)[C@@H]1O [inosine]

Inhibition of enzyme activity [1, 2]: not inhibitory
SMILES: Nc1ncnc2nc[nH]c12 [adenine]
